The subject of assay [1] is IL-17A-induced G-CSF production in human normal keratinocyte (NHK). Briefly: NHK assay: IL-17A-induced G-CSF production in normal human keratinocytes. It is filed as cell-based. Conditions: IL-17A 5 ng/mL, 24 h, average if tested more than once. In outline: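 IC50 derives from G-CSF in supernatants, quantified by HTRF from a standard curve, with CellTiter-Glo viability compared to DMSO control. Before a 24 h, 37°C culture of normal human keratinocytes at 3000–4000 cells/well, compound dilutions were preincubated 1 h at rt with human IL-17A (5 ng/mL final), with 0.2% DMSO and 5% FBS.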

A further assay addresses T1, IL-17A : IL-17RA binding (Homo sapiens, UniProt Q16552, K93Q).
T1 construct: Name: IL-17A-Flag
Briefly: IL-17A(FLAG-tagged):IL-17RA(His-tagged) binding disruption Eu-HTRF assay, Protocol 1. The conditions noted are these: FLAG-IL-17A 2.5 nM at 2x final concentration; average if tested more than once. In short, it runs like this:
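IC50 came from a one-site competition fit of the acceptor/donor (665/620 nm) HTRF ratio. His-tagged IL-17RA, Eu-anti-FLAG and D2-anti-His were added after a 1 h rt compound preincubation with FLAG-tagged IL-17A dimer in PBS/0.01% Triton X-100, followed by 2 h at rt before reading.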

pIC50: −log10 of the molar value.

The text below walks through data of patent US20240376085A1 (Janssen Pharmaceutica NV, priority 2021, published 2024).

T1 sequence (Q16552 with tags, fused parts or gaps K93Q): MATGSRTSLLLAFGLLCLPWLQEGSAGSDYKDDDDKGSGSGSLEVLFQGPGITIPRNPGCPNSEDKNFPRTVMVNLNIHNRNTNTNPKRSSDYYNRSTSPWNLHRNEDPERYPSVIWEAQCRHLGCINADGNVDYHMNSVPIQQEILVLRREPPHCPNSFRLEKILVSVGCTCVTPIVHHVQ

Regarding `Cn1nccc1C(=O)N[C@H](c1nc2cc(C(NC(=O)CCC(F)(F)F)C3CCC3)ccc2[nH]1)C1CCC(F)(F)CC1` (single isomer, unassigned) [Example 43, N—((S)-(5-((R*)-Cyclobutyl(4,4,4-trifluorobutanamido)methyl)-1H-benzo[d]imidazol-2-yl)(4,4-difluorocyclohexyl)methyl)-1-methyl-1H-pyrazole-5-carboxamide], the pIC50 (in assay [1]; at IL-17A : IL-17RA binding) was below 7.00 in each case.

In the case of `CC(C)CC(NC(=O)CCC(F)(F)F)c1ccc2[nH]c([C@@H](NC(=O)c3ccnn3C)C3CCC(F)(F)CC3)nc2c1` (single isomer, unassigned) [Example 49, N—((S)-(4,4-Difluorocyclohexyl)(5-((R*)-3-methyl-1-(4,4,4-trifluorobutanamido)butyl)-1H-benzo[d]imidazol-2-yl)methyl)-1-methyl-1H-pyrazole-5-carboxamide], the figures for the pIC50 (in assay [1]; on IL-17A : IL-17RA binding) were above 7.30 and below 7.00, respectively.

As to `CC(CC(=O)N[C@H](C)c1ccc2nc([C@@H](NC(=O)c3ccnn3CCC(F)(F)F)C3CCC(F)(F)CC3)[nH]c2c1)C(F)(F)F` (single isomer, unassigned) [Example 138, N—((S)-(4,4-Difluorocyclohexyl)(6-((R)-1-((S*)-4,4,4-trifluoro-3-methylbutanamido)ethyl)-1H-benzo[d]imidazol-2-yl)methyl)-1-(3,3,3-trifluoropropyl)-1H-pyrazole-5-carboxamide], the pIC50 (in general, −log10 of the IC50, conventionally taken in molar units) in assay [1] was 7.00 to 7.30; at IL-17A : IL-17RA binding, below 7.00.

Regarding `C[C@@H](NC(=O)CCC(F)(F)F)c1ccc2nc([C@@H](NC(=O)c3cn(CC4CC(F)(F)C4)nn3)C3CCC(F)(F)CC3)[nH]c2c1` [Example 65, 1-((3,3-Difluorocyclobutyl)methyl)-N—((S)-(4,4-difluorocyclohexyl)(6-((R)-1-(4,4,4-trifluorobutanamido)ethyl)-1H-benzo[d]imidazol-2-yl)methyl)-1H-1,2,3-triazole-4-carboxamide], the pIC50 in assay [1] (Homo sapiens, Keratinocyte) was below 7.00; at IL-17A : IL-17RA binding, below 7.00.

Take `CC(C)(OCC(NC(=O)c1nonc1C1CC1)c1nc2ccc([C@H](NC(=O)CC3CC(F)(F)C3)C3CC3)cc2[nH]1)C(F)(F)F` (single isomer, unassigned) [Example 163, 4-Cyclopropyl-N—((S*)-1-(6-((R)-cyclopropyl(2-(3,3-difluorocyclobutyl)acetamido)methyl)-1H-benzo[d]imidazol-2-yl)-2-((1,1,1-trifluoro-2-methylpropan-2-yl)oxy)ethyl)-1,2,5-oxadiazole-3-carboxamide]: the pIC50 in assay [1] (Homo sapiens, Keratinocyte) is below 7.00; on IL-17A : IL-17RA binding, below 7.00.

In the case of `O=C(CC1CC(F)(F)C1)N[C@@H](c1ccc2[nH]c([C@@H](NC(=O)c3nonc3C3CC3)C3CCC(F)(F)CC3)nc2c1)C1CC1` [Example 143, 4-Cyclopropyl-N—((S)-(5-((R)-cyclopropyl(2-(3,3-difluorocyclobutyl)acetamido)methyl)-1H-benzo[d]imidazol-2-yl)(4,4-difluorocyclohexyl)methyl)-1,2,5-oxadiazole-3-carboxamide], the pIC50 in assay [1] (Homo sapiens, Keratinocyte) is above 7.30; at IL-17A : IL-17RA binding, above 7.30.

For `CCc1nonc1C(=O)N[C@@H](CC(C)(C)C(F)(F)F)c1nc2cc([C@H](NC(=O)CCC(F)(F)F)C3CC3)ccc2[nH]1` (relative stereo) [Example 190, N—((S*)-1-(5-((R*)-Cyclopropyl(4,4,4-trifluorobutanamido)methyl)-1H-benzo[d]imidazol-2-yl)-4,4,4-trifluoro-3,3-dimethylbutyl)-4-ethyl-1,2,5-oxadiazole-3-carboxamide], the pIC50 was above 7.30 in assay [1] (Homo sapiens, Keratinocyte) and above 7.30 at IL-17A : IL-17RA binding.

Consider `Cc1nonc1C(=O)N[C@H](c1nc2ccc([C@H](NC(=O)CC3CC(F)(F)C3)C3CC3)cc2[nH]1)C1CCC(F)(F)CO1` (single isomer, unassigned) [Example 260, N—((R)-(6-((R)-Cyclopropyl(2-(3,3-difluorocyclobutyl)acetamido)methyl)-1H-benzo[d]imidazol-2-yl)((S*)-5,5-difluorotetrahydro-2H-pyran-2-yl)methyl)-4-methyl-1,2,5-oxadiazole-3-carboxamide], for which the pIC50 in assay [1] (Homo sapiens, Keratinocyte) is below 7.00; on IL-17A : IL-17RA binding, below 7.00.

As to `C[C@@H](NC(=O)CCC(F)(F)F)c1ccc2nc([C@@H](NC(=O)c3cc(F)ccc3F)C3CCC(F)(F)CC3)[nH]c2c1` [Example 123, N—((S)-(4,4-Difluorocyclohexyl)(6-((R)-1-(4,4,4-trifluorobutanamido)ethyl)-1H-benzo[d]imidazol-2-yl)methyl)-2,5-difluorobenzamide], the pIC50 in assay [1] (Homo sapiens, Keratinocyte) was below 7.00; on IL-17A : IL-17RA binding it was below 7.00.

As to `C[C@@H](NC(=O)CCC(F)(F)F)c1ccc2[nH]c([C@@H](NC(=O)c3ccc(CCC(F)(F)F)s3)C3CCC(F)(F)CC3)nc2c1` [Example 221, N—((S)-(4,4-Difluorocyclohexyl)(5-((R)-1-(4,4,4-trifluorobutanamido)ethyl)-1H-benzo[d]imidazol-2-yl)methyl)-5-(3,3,3-trifluoropropyl)thiophene-2-carboxamide], the pIC50 in assay [1] (Homo sapiens, Keratinocyte) is below 7.00; at IL-17A : IL-17RA binding, below 7.00.

As to `CC(CC(=O)N[C@H](C)c1ccc2nc([C@@H](NC(=O)c3ccnn3CC(F)(F)F)C3CCC(F)(F)CC3)[nH]c2c1)C(F)(F)F` (single isomer, unassigned) [Example 133, N—((S)-(4,4-Difluorocyclohexyl)(6-((R)-1-((R*)-4,4,4-trifluoro-3-methylbutanamido)ethyl)-1H-benzo[d]imidazol-2-yl)methyl)-1-(2,2,2-trifluoroethyl)-1H-pyrazole-5-carboxamide], the pIC50 is below 7.00 in assay [1] (Homo sapiens, Keratinocyte) and below 7.00 at IL-17A : IL-17RA binding.

As to `C[C@@H](NC(=O)CCC(F)(F)F)c1ccc2[nH]c([C@@H](NC(=O)c3nccn3CCC(F)(F)F)C3CCC(F)(F)CC3)nc2c1` [Example 227, N—((S)-(4,4-Difluorocyclohexyl)(5-((R)-1-(4,4,4-trifluorobutanamido)ethyl)-1H-benzo[d]imidazol-2-yl)methyl)-1-(3,3,3-trifluoropropyl)-1H-imidazole-2-carboxamide], the pIC50 in assay [1] (Homo sapiens, Keratinocyte) is below 7.00; at IL-17A : IL-17RA binding, below 7.00.

For `C[C@@H](NC(=O)CCC(F)(F)F)c1ccc2[nH]c([C@@H](NC(=O)c3cnnn3CC3CC3(F)F)C3CCC(F)(F)CC3)nc2c1` (stereo partly drawn) [Example 80, N—((S)-(4,4-Difluorocyclohexyl)(5-((R)-1-(4,4,4-trifluorobutanamido)ethyl)-1H-benzo[d]imidazol-2-yl)methyl)-1-((2,2-difluorocyclopropyl)methyl)-1H-1,2,3-triazole-5-carboxamide], the pIC50 in assay [1] (Homo sapiens, Keratinocyte) is 7.00 to 7.30; at IL-17A : IL-17RA binding, below 7.00.

With `CCn1nccc1C(=O)N[C@H](c1nc2cc([C@@H](C)NC(=O)CC(C(F)(F)F)C(F)(F)F)ccc2[nH]1)C1CCC(F)(F)CC1` [Example 127, N—((S)-(4,4-Difluorocyclohexyl)(5-((R)-1-(4,4,4-trifluoro-3-(trifluoromethyl)butanamido)ethyl)-1H-benzo[d]imidazol-2-yl)methyl)-1-ethyl-1H-pyrazole-5-carboxamide], the pIC50 in assay [1] (Homo sapiens, Keratinocyte) was above 7.30; at IL-17A : IL-17RA binding, 7.00 to 7.30.

With `Cc1nonc1C(=O)N[C@@H](CC(C)(C)C(F)F)c1nc2ccc([C@H](NC(=O)CC3CC(F)(F)C3)C3CC3)cc2[nH]1` [Example 233, N—((S)-1-(6-((R)-Cyclopropyl(2-(3,3-difluorocyclobutyl)acetamido)methyl)-1H-benzo[d]imidazol-2-yl)-4,4-difluoro-3,3-dimethylbutyl)-4-methyl-1,2,5-oxadiazole-3-carboxamide], the pIC50 is below 7.00 in assay [1] (Homo sapiens, Keratinocyte) and above 7.30 at IL-17A : IL-17RA binding.

As to `COCCn1cc(C(=O)N[C@H](c2nc3cc([C@@H](C)NC(=O)CCC(F)(F)F)ccc3[nH]2)C2CCC(F)(F)CC2)nn1` [Example 16, N—[(S)-(4,4-Difluorocyclohexyl)-[6-[(1R)-1-(4,4,4-trifluorobutanoylamino)ethyl]-1H-benzimidazol-2-yl]methyl]-1-(2-methoxyethyl)triazole-4-carboxamide], the negative-log IC50 (pIC50) in assay [1] (Homo sapiens, Keratinocyte) was below 7.00; at IL-17A : IL-17RA binding, below 7.00.

As to `Cc1nonc1C(=O)N[C@@H](CC(C)(C)C(F)(F)F)c1nc2cc([C@H](NC(=O)CCC(F)(F)F)C3CC3)ccc2[nH]1` (relative stereo) [Example 193, N—((S*)-1-(5-((R*)-Cyclopropyl(4,4,4-trifluorobutanamido)methyl)-1H-benzo[d]imidazol-2-yl)-4,4,4-trifluoro-3,3-dimethylbutyl)-4-methyl-1,2,5-oxadiazole-3-carboxamide], the pIC50 in assay [1] (Homo sapiens, Keratinocyte) was 7.00 to 7.30; on IL-17A : IL-17RA binding, above 7.30.

With `CC(C)n1nccc1C(=O)N[C@H](c1nc2cc([C@H](NC(=O)CC3CC(F)(F)C3)C3CC3)ccc2[nH]1)C1CCC(F)(F)CC1` [Example 142, N—((S)-(5-((R)-Cyclopropyl(2-(3,3-difluorocyclobutyl)acetamido)methyl)-1H-benzo[d]imidazol-2-yl)(4,4-difluorocyclohexyl)methyl)-1-isopropyl-1H-pyrazole-5-carboxamide], the pIC50 in assay [1] (Homo sapiens, Keratinocyte) is above 7.30; at IL-17A : IL-17RA binding, 7.00 to 7.30.

On to `C[C@@H](NC(=O)CCC(F)(F)F)c1ccc2[nH]c([C@@H](NC(=O)c3cnn(C)c3CCC(F)(F)F)C3CCC(F)(F)CC3)nc2c1` [Example 6, N—[(S)-(4,4-Difluorocyclohexyl)-[6-[(1R)-1-(4,4,4-trifluorobutanoylamino)ethyl]-1H-benzimidazol-2-yl]methyl]-1-methyl-5-(3,3,3-trifluoropropyl)pyrazole-4-carboxamide], for which the pIC50 in assay [1] (Homo sapiens, Keratinocyte) is below 7.00; at IL-17A : IL-17RA binding it was below 7.00.
